The text below walks through data of patent publication US9718828B2 (MERCK SHARP & DOHME CORP., priority 2011, dated 2017).

Broadly, the IC50 is the concentration that inhibits the measured activity by half.

Each structure is given as a SMILES string. Structures can show the parent of a compound that is named as a salt.

In one assay the target is hBTK (full-length BTK, 6HIS-tag cleaved) (Homo sapiens (Human), UniProt Q06187). Kind of assay: BTK enzymatic activity, LANCE TR-FRET assay (Assay Method C). It counts as biochemical. To be noted: LANCE TR-FRET, 50 pM hBTK, 25 μM ATP; class 100-1000 is given as ≧100 nM-<1 μM; read-out: IC50 Btk activity values - Assay Method C. In general terms: In TR-FRET formats the signal depends on donor and acceptor labels being close together.
Sequence of hBTK (full-length BTK, 6HIS-tag cleaved) (Q06187 whole entry): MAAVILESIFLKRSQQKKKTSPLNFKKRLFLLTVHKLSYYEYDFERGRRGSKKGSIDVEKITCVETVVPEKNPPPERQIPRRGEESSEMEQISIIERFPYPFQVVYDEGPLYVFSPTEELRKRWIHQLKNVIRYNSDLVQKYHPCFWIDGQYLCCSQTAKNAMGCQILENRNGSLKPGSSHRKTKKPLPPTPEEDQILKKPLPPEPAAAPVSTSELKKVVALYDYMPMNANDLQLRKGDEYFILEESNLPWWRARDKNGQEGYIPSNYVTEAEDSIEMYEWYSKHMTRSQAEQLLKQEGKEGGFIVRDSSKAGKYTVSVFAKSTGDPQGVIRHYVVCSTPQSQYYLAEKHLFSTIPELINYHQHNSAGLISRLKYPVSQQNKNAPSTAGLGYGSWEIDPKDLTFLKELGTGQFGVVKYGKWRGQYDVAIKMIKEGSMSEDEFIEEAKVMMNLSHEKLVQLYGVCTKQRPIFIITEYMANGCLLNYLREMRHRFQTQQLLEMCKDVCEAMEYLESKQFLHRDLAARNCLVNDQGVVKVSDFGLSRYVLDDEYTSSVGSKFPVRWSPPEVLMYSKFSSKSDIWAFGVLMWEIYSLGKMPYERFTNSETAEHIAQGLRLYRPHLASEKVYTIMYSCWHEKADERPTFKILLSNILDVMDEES
Turning to `Cc1ccnc(NC(=O)c2ccc(-c3nc([C@@H]4CCCN(C(=O)C5(C)COC5)C4)n4c(Cl)cnc(N)c34)cc2)c1` [Example 446, 4-(8-amino-5-chloro-3-{(3R)-1-[(3-methyloxetan-3-yl)carbonyl]piperidin-3-yl}imidazo[1,5-a]pyrazin-1-yl)-N-(4-methylpyridin-2-yl)benzamide], the IC50 was less than 10 nM. Take `COCC(=O)N1CCC[C@@H](c2nc(-c3ccc(C(=O)Nc4cc(C(F)(F)F)ccn4)cc3F)c3c(N)ncc(COC)n23)C1` [Example 452, 4-{8-amino-3-[(3R)-1-(methoxyacetyl)piperidin-3-yl]-5-(methoxymethyl)imidazo[1,5-a]pyrazin-1-yl}-3-fluoro-N-[4-(trifluoromethyl)pyridin-2-yl]benzamide]: the IC50 is less than 10 nM. `CC(=O)N1CCC[C@@H](n2nc(-c3ccc(C(=O)Nc4cc(C(F)(F)F)ccn4)cc3)c3c(N)nccc32)C1` [Example 385, 4-{1-[(3R)-1-acetylpiperidin-3-yl]-4-amino-1H-pyrazolo[4,3-c]pyridin-3-yl}-N-[4-(trifluoromethyl)pyridin-2-yl]benzamide]: the IC50 was less than 10 nM.

With `CS(=O)(=O)CC(=O)N1CCC[C@@H](c2nc(-c3ccc(C(=O)Nc4cc(C(F)(F)F)ccn4)cc3)c3c(N)nccn23)C1` [Example 349, 4-(8-amino-3-{(3R)-1-[(methylsulfonyl)acetyl]piperidin-3-yl}imidazo[1,5-a]pyrazin-1-yl)-N-[4-(trifluoromethyl)pyridin-2-yl]benzamide], the IC50 is less than 10 nM.

Take `CCC(=O)N1CCC[C@@H](c2nc(-c3ccc(C(=O)Nc4cc(OC)ccn4)cc3)c3c(N)nccn23)C1` [Example 372, 4-{8-amino-3-[(3R)-1-propanoylpiperidin-3-yl]imidazo[1,5-a]pyrazin-1-yl}-N-(4-methoxypyridin-2-yl)benzamide]: the IC50 was less than 10 nM. Still for that read-out and setting: as for `CC1(C(=O)N2CCC[C@@H](c3nc(-c4ccc(C(=O)Nc5ncc(C(C)(C)C)s5)cc4)c4c(N)nccn34)C2)COC1` [Example 369, 4-(8-amino-3-{(3R)-1-[(3-methyloxetan-3-yl)carbonyl]piperidin-3-yl}imidazo[1,5-a]pyrazin-1-yl)-N-(5-tert-butyl-1,3-thiazol-2-yl)benzamide], the figure is less than 10 nM; as for `COCC(=O)N1CCC[C@@H](c2nc(-c3ccc(C(=O)Nc4cc(C(F)(F)F)ccn4)cc3)c3c(N)nccn23)C1` [Example 340, 4-{8-amino-3-[(3R)-1-(methoxyacetyl)piperidin-3-yl]imidazo[1,5-a]pyrazin-1-yl}-N-[4-(trifluoromethyl)pyridin-2-yl]benzamide], less than 10 nM. Still for that read-out and setting: as for `CCC(O)C(=O)N1CCC[C@@H](c2nc(-c3ccc(C(=O)Nc4cc(C(F)(F)F)ccn4)cc3)c3c(N)nccn23)C1` (stereo partly drawn) [Example 343, 4-{8-amino-3-[(3R)-1-(2-hydroxybutanoyl)piperidin-3-yl]imidazo[1,5-a]pyrazin-1-yl}-N-[4-(trifluoromethyl)pyridin-2-yl]benzamide], the figure is less than 10 nM. For `CC1(C(=O)N2CCC[C@@H](c3nc(-c4ccc(C(=O)Nc5cc(C(C)(F)F)ccn5)cc4F)c4c(N)nccn34)C2)COC1` [Example 484, 4-(8-amino-3-{(3R)-1-[(3-methyloxetan-3-yl)carbonyl]piperidin-3-yl}imidazo[1,5-a]pyrazin-1-yl)-N-[4-(1,1-difluoroethyl)pyridin-2-yl]-3-fluorobenzamide], the IC50 is less than 10 nM. On the same count and under the same terms, the value for `C[C@@H](O)c1cnc(N)c2c(-c3ccc(C(=O)Nc4cc(C(F)(F)F)ccn4)cc3)nc([C@@H]3CCCN(C(=O)C4(C)COC4)C3)n12` [Example 465, 4-(8-amino-5-[(1R)-1-hydroxyethyl]-3-{(3R)-1-[(3-methyloxetan-3-yl)carbonyl]piperidin-3-yl}imidazo[1,5-a]pyrazin-1-yl)-N-[4-(trifluoromethyl)pyridin-2-yl]benzamide] was less than 10 nM; that for `Nc1ncnc2c1c(-c1ccc(C(=O)Nc3cc(C(F)(F)F)ccn3)cc1)nn2[C@@H]1CCCc2[nH]ncc21` [Example 554, 4-{4-amino-1-[(4R)-4,5,6,7-tetrahydro-1H-indazol-4-yl]-1H-pyrazolo[3,4-d]pyrimidin-3-yl}-N-[4-(trifluoromethyl)pyridin-2-yl]benzamide, TFA salt] was 10 to 100 nM; that for `CCN1CCO[C@@H](c2nc(-c3ccc(C(=O)Nc4cc(C(F)(F)F)ccn4)cc3)c3c(N)ncc(C)n23)C1` [Example 511, 4-{8-amino-3-[(2R)-4-ethylmorpholin-2-yl]-5-methylimidazo[1,5-a]pyrazin-1-yl}-N-[4-(trifluoromethyl)pyridin-2-yl]benzamide] was less than 10 nM.

Consider `CCOCC(=O)N1CCC[C@@H](c2nc(-c3ccc(C(=O)Nc4cc(C(F)(F)F)ccn4)cc3)c3c(N)nccn23)C1` [Example 339, 4-{8-amino-3-[(3R)-1-(ethoxyacetyl)piperidin-3-yl]imidazo[1,5-a]pyrazin-1-yl}-N-[4-(trifluoromethyl)pyridin-2-yl]benzamide], for which the IC50 was less than 10 nM. On the same count and under the same terms, the value for `COC(=O)N1C[C@@H](c2nc(-c3ccc(C(=O)Nc4cc(C(F)(F)F)ccn4)cc3)c3c(N)nccn23)CC[C@@H]1C(F)(F)F` [Example 430, methyl (2R,5S)-5-[8-amino-1-(4-{[4-(trifluoromethyl)pyridin-2-yl]carbamoyl}phenyl)imidazo[1,5-a]pyrazin-3-yl]-2-(trifluoromethyl)piperidine-1-carboxylate] was less than 10 nM. Same read-out and setting: the value for `C[C@@H](O)C(=O)N1CCC[C@@H](c2nc(-c3ccc(C(=O)Nc4cc(C(F)(F)F)ccn4)cc3)c3c(N)nccn23)C1` [Example 346, 4-(8-amino-3-{(3R)-1-[(2R)-2-hydroxypropanoyl]piperidin-3-yl}imidazo[1,5-a]pyrazin-1-yl)-N-[4-(trifluoromethyl)pyridin-2-yl]benzamide] was less than 10 nM; that for `COCc1cnc(N)c2c(-c3ccc(C(=O)Nc4cc(C(F)(F)F)ccn4)cc3F)nc([C@@H]3CCCN(C(=O)C4(C)COC4)C3)n12` [Example 451, 4-[8-amino-5-(methoxymethyl)-3-{(3R)-1-[(3-methyloxetan-3-yl)carbonyl]piperidin-3-yl}imidazo[1,5-a]pyrazin-1-yl]-3-fluoro-N-[4-(trifluoromethyl)pyridin-2-yl]benzamide] was less than 10 nM; that for `C[C@H]1CC[C@@H](c2nc(-c3ccc(C(=O)Nc4cc(C(F)F)ccn4)cc3F)c3c(N)nccn23)CN1C(=O)C1(C)COC1` [Example 434, 4-(8-amino-3-{(3R,6S)-6-methyl-1-[(3-methyloxetan-3-yl)carbonyl]piperidin-3-yl}imidazo[1,5-a]pyrazin-1-yl)-N-[4-(difluoromethyl)pyridin-2-yl]-3-fluorobenzamide] was less than 10 nM. Regarding `COCC(=O)N1CCC[C@@H](c2nc(-c3ccc(C(=O)Nc4cc(C(F)(F)F)ccn4)cc3)c3c(N)ncc(Cl)n23)C1` [Example 442, 4-{8-amino-5-chloro-3-[(3R)-1-(methoxyacetyl)piperidin-3-yl]imidazo[1,5-a]pyrazin-1-yl}-N-[4-(trifluoromethyl)pyridin-2-yl]benzamide], the IC50 is less than 10 nM. The same measure, in the same setting: as for `Cc1cnc(N)c2c(-c3ccc(C(=O)Nc4cc(C(F)(F)F)ccn4)cc3)nc([C@H]3CN(CCO)CCO3)n12` [Example 540, 4-{8-amino-3-[(2R)-4-(2-hydroxyethyl)morpholin-2-yl]-5-methylimidazo[1,5-a]pyrazin-1-yl}-N-[4-(trifluoromethyl)pyridin-2-yl]benzamide, TFA salt], the figure is less than 10 nM; as for `CN1CCC[C@H]1C(=O)N1CCC[C@@H](c2nc(-c3ccc(C(=O)Nc4cc(C(F)(F)F)ccn4)cc3)c3c(N)nccn23)C1` [Example 341, 4-{8-amino-3-[(3R)-1-(1-methyl-L-prolyl)piperidin-3-yl]imidazo[1,5-a]pyrazin-1-yl}-N-[4-(trifluoromethyl)pyridin-2-yl]benzamide], less than 10 nM. Consider `Nc1nccn2c([C@H]3CN(C(=O)C4CC4)CCO3)nc(-c3ccc(C(=O)Nc4cc(C(F)(F)F)ccn4)cc3F)c12` [Example 512, 4-{8-amino-3-[(2R)-4-(cyclopropylcarbonyl)morpholin-2-yl]imidazo[1,5-a]pyrazin-1-yl}-3-fluoro-N-[4-(trifluoromethyl)pyridin-2-yl]benzamide, TFA salt], for which the IC50 was less than 10 nM. On the same count and under the same terms, the value for `C[C@H]1CO[C@@H](c2nc(-c3ccc(C(=O)Nc4cc(C(F)(F)F)ccn4)cc3)c3c(N)nccn23)CN1C(=O)C1CC1` [Example 516, 4-{8-amino-3-[(2R,5S)-4-(cyclopropylcarbonyl)-5-methylmorpholin-2-yl]imidazo[1,5-a]pyrazin-1-yl}-N-[4-(trifluoromethyl)pyridin-2-yl]benzamide, TFA salt] was less than 10 nM; that for `COc1ccnc(NC(=O)c2ccc(-c3nc([C@@H]4CCCN(C(=O)C5(C)COC5)C4)n4c(Cl)cnc(N)c34)cc2)c1` [Example 444, 4-(8-amino-5-chloro-3-{(3R)-1-[(3-methyloxetan-3-yl)carbonyl]piperidin-3-yl}imidazo[1,5-a]pyrazin-1-yl)-N-(4-methoxypyridin-2-yl)benzamide] was less than 10 nM. Still for that read-out and setting: as for `CC1(C(=O)N2CCC[C@@H](c3nc(-c4ccc(C(=O)Nc5ccc(C(F)F)cn5)cc4)c4c(N)nccn34)C2)COC1` [Example 355, 4-(8-amino-3-{(3R)-1-[(3-methyloxetan-3-yl)carbonyl]piperidin-3-yl}imidazo[1,5-a]pyrazin-1-yl)-N-[5-(difluoromethyl)pyridin-2-yl]benzamide], the figure is less than 10 nM. The same measure, in the same setting: as for `C[C@H](O)C(=O)N1CCO[C@@H](c2nc(-c3ccc(C(=O)Nc4cc(C(F)(F)F)ccn4)cc3)c3c(N)nccn23)C1` [Example 519, 4-(8-amino-3-{(2R)-4-[(2S)-2-hydroxypropanoyl]morpholin-2-yl}imidazo[1,5-a]pyrazin-1-yl)-N-[4-(trifluoromethyl)pyridin-2-yl]benzamide], the figure is less than 10 nM.

The assay is the same for the next values; noted with them: Table D; Assay Method C (LANCE TR-FRET), 50 pM hBTK, 25 μM ATP; read-out: IC50 BTK activity value.
In the case of `C[C@@H](O)C(=O)N1CCC[C@@H](c2nc(-c3ccc(C(=O)Nc4cc(C(F)(F)F)ccn4)cc3)c3c(N)nccn23)C1` [Example 346, 4-(8-amino-3-{(3R)-1-[(2R)-2-hydroxypropanoyl]piperidin-3-yl}imidazo[1,5-a]pyrazin-1-yl)-N-[4-(trifluoromethyl)pyridin-2-yl]benzamide], the IC50 came to 0.219 nM.

As for `CC1(C(=O)N2CCC[C@@H](c3nc(-c4ccc(C(=O)Nc5ccc(C(F)F)cn5)cc4)c4c(N)nccn34)C2)COC1` [Example 355, 4-(8-amino-3-{(3R)-1-[(3-methyloxetan-3-yl)carbonyl]piperidin-3-yl}imidazo[1,5-a]pyrazin-1-yl)-N-[5-(difluoromethyl)pyridin-2-yl]benzamide], the IC50 stood at 1.33 nM.
